Laboratory results from patent US8748173B2 (priority 1998, dated 2014).
Several values for one entry are separate records, joined by “and”; a condition that tells them apart may be missing. Identical values can stand only once.

Tested on: Bacillus subtilis spores
Type: binding

| Substance | concentration at which the peptide stained spores | binding to B. subtilis spores |
| --- | --- | --- |
| Peptide 7183 consensus (RFTISRDNAKNTLYLQMSC; Peptide 7183 artificial peptide corresponding to consensus sequence in 7183 VH gene family.) [reference compound] | 200 μg/ml and 100 μM |  |
| Peptide Anti-spore (RFTISRDNPKNTLFLQMTC; Peptide Anti-spore artificial peptide corresponding to consensus sequence in the framework 3 region of antibodies against Bacillus subtilis spores.) | 2 μg/ml and 1 μM | bind strongly and specifically |
